According to US6974804B2, “Esters” (Unilever Home & Personal Care USA, division of Conopco, Inc., priority 2000, dated 2005):

Experiment: Gelling of water-immiscible cosmetic liquids in 96 well glass micro-titre plate
Type: physicochemical
Design: key: gel; g4: gel after overnight (18 hrs) storage at 4° C.; g22: gel after overnight (18 hrs) storage at 22° C.; sg: soft gel; sg22: soft gel after overnight (18 hrs) storage at 22° C.; solution; *: the test at 4° C. was not carried out
Conditions: for gelling of ISA: 150° C. 2.5 hours, cooled to ambient
Description: In this Example, various samples of esterified cellobiose prepared as in Example 1 or 2 above, were used to gel water-immiscible cosmetic liquids, in accordance with the procedure given below, in which a large number of gels can be prepared simultaneously.
The samples were tested in a 96 well (8×12 rows) glass micro-titre plate. […] About 0.01 or 0.02 g of each esterified cellobiose material was placed into 8 consecutive wells in a single row, so that each well contained approximately 5% or 10% of the cellobiose ester. The balance in each well comprised the cosmetic liquid by addition of approximately 0.2 g of the respective liquid to each cell. A glass lid was placed on top of the plate. The plate was carefully placed in a thermostatically controlled fan-assisted oven set at 150° C. for 2.5 hours. The plate was removed from the oven and allowed to cool naturally to ambient laboratory temperature. The contents of the wells were assessed at the end of the cooling period, by visual inspection and by poking the contents of each well with a micro-spatula. The plates were stored at […] for 18 hours and the contents inspected, and further stored for 18 hours at 4° C. and inspected for a third time. The results obtained in the tests are summarised in Table 5 below, in which the legend is as follows: […]

[1] = 5% cellobiose ester in Fluid AP
[2] = 5% cellobiose ester in Mineral oil
[3] = 5% cellobiose ester in Polydecene
[4] = 10% cellobiose ester in Fluid AP
[5] = 10% cellobiose ester in Mineral oil
[6] = 10% cellobiose ester in Polydecene

CCCCCCCCC(=O)OCC1OC(OC2C(COC(=O)CCCCCCCC)OC(OC(=O)C3CCCC3)C(OC(=O)CCCCCCCC)C2OC(=O)CCCCCCCC)C(OC(=O)CCCCCCCC)C(OC(=O)CCCCCCCC)C1OC(=O)CCCCCCCC (mixture of isomers) [Ex 3.5]
gel: gelling of Polydecene [3] | gelling of DC556 (10% cellobiose ester in DC556) | gelling of Fluid AP [4] | gelling of Mineral oil [5] | gelling of Polydecene [6]
sg22: gelling of Fluid AP [1] | gelling of ISA (5% cellobiose ester in ISA)
sol*: gelling of Mineral oil [2]
g22: gelling of DC556 (5% cellobiose ester in DC556) | gelling of ISA (10% cellobiose ester in ISA)

CCCCCCCCC(=O)OCC1OC(OC2C(COC(=O)CCCCCCCC)OC(OC(=O)C3CCCCC3)C(OC(=O)CCCCCCCC)C2OC(=O)CCCCCCCC)C(OC(=O)CCCCCCCC)C(OC(=O)CCCCCCCC)C1OC(=O)CCCCCCCC (mixture of isomers) [Ex 1.11]
gel: gelling of Fluid AP [1] | gelling of Polydecene [3] | gelling of DC556 (10% cellobiose ester in DC556) | gelling of Fluid AP [4] | gelling of Polydecene [6]
g22: gelling of DC556 (5% cellobiose ester in DC556) | gelling of ISA (5% cellobiose ester in ISA) | gelling of Mineral oil [2] | gelling of ISA (10% cellobiose ester in ISA) | gelling of Mineral oil [5]
sol: gelling of IPM (5% cellobiose ester in IPM) | gelling of IPM (10% cellobiose ester in IPM)

CCCCCCCCCCCC(=O)OC1OC(COC(=O)CCCCCCCC)C(OC2OC(COC(=O)CCCCCCCC)C(OC(=O)CCCCCCCC)C(OC(=O)CCCCCCCC)C2OC(=O)CCCCCCCC)C(OC(=O)CCCCCCCC)C1OC(=O)CCCCCCCC (mixture of isomers) [Ex 1.23]
g22: gelling of ISA (5% cellobiose ester in ISA) | gelling of Mineral oil [2] | gelling of ISA (10% cellobiose ester in ISA) | gelling of Mineral oil [5]
sg: gelling of Fluid AP [1]
gel: gelling of DC556 (5% cellobiose ester in DC556) | gelling of Polydecene [3] | gelling of DC556 (10% cellobiose ester in DC556) | gelling of Fluid AP [4] | gelling of Polydecene [6]

CCCCCCCCCC(=O)OCC1OC(OC2C(COC(=O)CCCCCCCCC)OC(OC(C)=O)C(OC(=O)CCCCCCCCC)C2OC(=O)CCCCCCCCC)C(OC(=O)CCCCCCCCC)C(OC(=O)CCCCCCCCC)C1OC(=O)CCCCCCCCC (mixture of isomers) [Ex 2.4]
gel: gelling of DC556 (5% cellobiose ester in DC556) | gelling of Fluid AP [1] | gelling of ISA (5% cellobiose ester in ISA) | gelling of Mineral oil [2] | gelling of Polydecene [3]

CCCCCCCCC(=O)OCC1OC(OC2C(COC(=O)CCCCCCCC)OC(OC(=O)CCCC)C(OC(=O)CCCCCCCC)C2OC(=O)CCCCCCCC)C(OC(=O)CCCCCCCC)C(OC(=O)CCCCCCCC)C1OC(=O)CCCCCCCC (mixture of isomers) [Ex 1.20]
gel: gelling of Polydecene [3] | gelling of Fluid AP [4] | gelling of Polydecene [6]
sg22: gelling of ISA (5% cellobiose ester in ISA)
g22: gelling of DC556 (5% cellobiose ester in DC556) | gelling of Fluid AP [1] | gelling of Mineral oil [2] | gelling of DC556 (10% cellobiose ester in DC556) | gelling of ISA (10% cellobiose ester in ISA) | gelling of Mineral oil [5]

CCCCCCCCC(=O)OCC1OC(OC2C(COC(=O)CCCCCCCC)OC(OC(=O)CCC)C(OC(=O)CCCCCCCC)C2OC(=O)CCCCCCCC)C(OC(=O)CCCCCCCC)C(OC(=O)CCCCCCCC)C1OC(=O)CCCCCCCC (mixture of isomers) [Ex 1.18]
gel: gelling of DC556 (5% cellobiose ester in DC556) | gelling of Fluid AP [1] | gelling of Polydecene [3] | gelling of DC556 (10% cellobiose ester in DC556) | gelling of Fluid AP [4] | gelling of ISA (10% cellobiose ester in ISA) | gelling of Mineral oil [5] | gelling of Polydecene [6]
g22: gelling of Mineral oil [2]
sg22: gelling of ISA (5% cellobiose ester in ISA)

CCCCCCCCCCCCCC(=O)OC1OC(COC(=O)CCCCCCCC)C(OC2OC(COC(=O)CCCCCCCC)C(OC(=O)CCCCCCCC)C(OC(=O)CCCCCCCC)C2OC(=O)CCCCCCCC)C(OC(=O)CCCCCCCC)C1OC(=O)CCCCCCCC (mixture of isomers) [Ex 1.24]
g22: gelling of ISA (5% cellobiose ester in ISA) | gelling of Mineral oil [2] | gelling of Mineral oil [5]
gel: gelling of DC556 (5% cellobiose ester in DC556) | gelling of Fluid AP [1] | gelling of Polydecene [3] | gelling of DC556 (10% cellobiose ester in DC556) | gelling of Fluid AP [4] | gelling of ISA (10% cellobiose ester in ISA) | gelling of Polydecene [6]
